The values below are quoted from earlier work in US6150359A, “Naphthyridinones for inhibiting protein tyrosine kinase and cell cycle kinase mediated cellular proliferation” (Warner-Lambert Company, priority 2000, dated 2000).

For one series, the system named is human tumor cell lines. The settings on record: approximately 60 NCI human tumor cell lines; cited from earlier work.
For the next series, the system named is cdk2. As to conditions: cited from earlier work.

As for `Cn1cnc2c(NCc3ccccc3)nc(NCCO)nc21` [Olomoucine, 2-(hydroxyethylamine)-6-benzylamine-9-methylpurine], the “inhibition of proliferation of human tumor cell lines” value in the series with human tumor cell lines is recorded as “shown to inhibit proliferation of approximately 60 different human tumor cell lines”. Also, in the series on cdk2, the “inhibition of cdk2” value is “potent inhibitor of cdk2 and cdk5”.
